Results published in ChEMBL document CHEMBL3885881, “DrugMatrix”.

Organism: Rattus norvegicus
Test: DrugMatrix - Regimen: Daily Repeat
Assay type: toxicity, organism-based, Sprague-Dawley
Parameters: regimen Daily Repeat, gender Male, age 6-8 weeks
Conditions: in vivo, po, route oral GAVAGE, vehicle .5 % CMC; for ABSOLUTE BASOPHIL / ABSOLUTE EOSINOPHIL / ABSOLUTE LYMPHOCYTE / ABSOLUTE MONOCYTE / ABSOLUTE SEGMENTED NEUTROPHIL / BASOPHIL / EOSINOPHIL / ERYTHROCYTE COUNT / HEMATOCRIT / HEMOGLOBIN / LEUKOCYTE COUNT / LYMPHOCYTE / MEAN CORPUSCULAR HEMOGLOBIN / MEAN CORPUSCULAR HEMOGLOBIN CONCENTRATION / MEAN CORPUSCULAR VOLUME / MONOCYTE / NEUTROPHIL / NUCLEATED RED BLOOD CELLS / PLATELET COUNT: tissue Blood; for ALANINE AMINOTRANSFERASE / ALBUMIN / ALKALINE PHOSPHATASE / ASPARTATE AMINOTRANSFERASE / BLOOD UREA NITROGEN / CARBON DIOXIDE / CHLORIDE / CHOLESTEROL / CREATINE PHOSPHOKINASE / CREATININE / GLUCOSE / LACTATE DEHYDROGENASE / LIPASE / PHOSPHORUS / SODIUM / TOTAL BILIRUBIN / TOTAL PROTEIN / URIC ACID: tissue Plasma
[1] = 54 mg/kg, 72 h, dose level Low, time 3 day
[2] = 54 mg/kg, 120 h, dose level Low, time 5 day
[3] = 1200 mg/kg, 72 h, dose level High, time 3 day
[4] = 1200 mg/kg, 120 h, dose level High, time 5 day

NC(N)=Nc1nc(CSCCC(N)=NS(N)(=O)=O)cs1 [FAMOTIDINE]
ABSOLUTE BASOPHIL [1]: 0 CELLS/uL
ABSOLUTE EOSINOPHIL [1]: 169.67 CELLS/uL
ABSOLUTE LYMPHOCYTE [1]: 13320 CELLS/uL
ABSOLUTE MONOCYTE [1]: 113.67 CELLS/uL
ABSOLUTE SEGMENTED NEUTROPHIL [1]: 2530 CELLS/uL
BASOPHIL [1]: 0%
EOSINOPHIL [1]: 1%
ERYTHROCYTE COUNT [1]: 5.11 x10E6/uL
HEMATOCRIT [1]: 32.47%
HEMOGLOBIN [1]: 12.1 G/DL
LEUKOCYTE COUNT [1]: 16.13 x10E3/uL
LYMPHOCYTE [1]: 81.67%
MEAN CORPUSCULAR HEMOGLOBIN [1]: 23.73 pg
MEAN CORPUSCULAR HEMOGLOBIN CONCENTRATION [1]: 37.27 G/DL
MEAN CORPUSCULAR VOLUME [1]: 63.57 fL
MONOCYTE [1]: 0.67%
NEUTROPHIL [1]: 16.67%
NUCLEATED RED BLOOD CELLS [1]: 0 /100WBC
PLATELET COUNT [1]: 1110 x10E3/uL
ALANINE AMINOTRANSFERASE [1]: 57 u/L
ALBUMIN [1]: 4.17 G/DL
ALKALINE PHOSPHATASE [1]: 343.67 u/L
ASPARTATE AMINOTRANSFERASE [1]: 85 u/L
BLOOD UREA NITROGEN [1]: 17 mg/dL
CARBON DIOXIDE [1]: 27.33 mmol/L
CHLORIDE [1]: 106.67 MEQ/L
CHOLESTEROL [1]: 74.67 mg/dL
CREATINE PHOSPHOKINASE [1]: 218 u/L
CREATININE [1]: 0.19 mg/dL
GLUCOSE [1]: 162 mg/dL
LACTATE DEHYDROGENASE [1]: 62.33 u/L
LIPASE [1]: 9 u/L
PHOSPHORUS [1]: 14.6 mg/dL
SODIUM [1]: 148.03 MEQ/L
TOTAL BILIRUBIN [1]: 0.2 mg/dL
TOTAL PROTEIN [1]: 5.87 G/DL
URIC ACID [1]: 1.13 mg/dL
ABSOLUTE BASOPHIL [2]: 0 CELLS/uL
ABSOLUTE EOSINOPHIL [2]: 121 CELLS/uL
ABSOLUTE LYMPHOCYTE [2]: 12766.33 CELLS/uL
ABSOLUTE MONOCYTE [2]: 233 CELLS/uL
ABSOLUTE SEGMENTED NEUTROPHIL [2]: 713 CELLS/uL
BASOPHIL [2]: 0%
EOSINOPHIL [2]: 1%
ERYTHROCYTE COUNT [2]: 5.42 x10E6/uL
HEMATOCRIT [2]: 34.9%
HEMOGLOBIN [2]: 13.43 G/DL
LEUKOCYTE COUNT [2]: 13.83 x10E3/uL
LYMPHOCYTE [2]: 92%
MEAN CORPUSCULAR HEMOGLOBIN [2]: 24.87 pg
MEAN CORPUSCULAR HEMOGLOBIN CONCENTRATION [2]: 38.5 G/DL
MEAN CORPUSCULAR VOLUME [2]: 64.63 fL
MONOCYTE [2]: 1.67%
NEUTROPHIL [2]: 5.33%
NUCLEATED RED BLOOD CELLS [2]: 0 /100WBC
PLATELET COUNT [2]: 1325.67 x10E3/uL
ALANINE AMINOTRANSFERASE [2]: 55.33 u/L
ALBUMIN [2]: 4.33 G/DL
ALKALINE PHOSPHATASE [2]: 326.67 u/L
ASPARTATE AMINOTRANSFERASE [2]: 90.67 u/L
BLOOD UREA NITROGEN [2]: 18 mg/dL
CARBON DIOXIDE [2]: 24.33 mmol/L
CHLORIDE [2]: 106.33 MEQ/L
CHOLESTEROL [2]: 62.67 mg/dL
CREATINE PHOSPHOKINASE [2]: 662.67 u/L
CREATININE [2]: 0.19 mg/dL
GLUCOSE [2]: 182.67 mg/dL
LACTATE DEHYDROGENASE [2]: 190.67 u/L
LIPASE [2]: 8 u/L
PHOSPHORUS [2]: 14.57 mg/dL
SODIUM [2]: 146.63 MEQ/L
TOTAL BILIRUBIN [2]: 0.2 mg/dL
TOTAL PROTEIN [2]: 6.07 G/DL
URIC ACID [2]: 1.6 mg/dL
ABSOLUTE BASOPHIL [3]: 0 CELLS/uL
ABSOLUTE EOSINOPHIL [3]: 179 CELLS/uL
ABSOLUTE LYMPHOCYTE [3]: 9906 CELLS/uL
ABSOLUTE MONOCYTE [3]: 48.67 CELLS/uL
ABSOLUTE SEGMENTED NEUTROPHIL [3]: 1366.33 CELLS/uL
BASOPHIL [3]: 0%
EOSINOPHIL [3]: 1.67%
ERYTHROCYTE COUNT [3]: 5.88 x10E6/uL
HEMATOCRIT [3]: 36.73%
HEMOGLOBIN [3]: 13.97 G/DL
LEUKOCYTE COUNT [3]: 11.5 x10E3/uL
LYMPHOCYTE [3]: 85.33%
MEAN CORPUSCULAR HEMOGLOBIN [3]: 23.73 pg
MEAN CORPUSCULAR HEMOGLOBIN CONCENTRATION [3]: 38.03 G/DL
MEAN CORPUSCULAR VOLUME [3]: 62.5 fL
MONOCYTE [3]: 0.67%
NEUTROPHIL [3]: 12.33%
NUCLEATED RED BLOOD CELLS [3]: 0 /100WBC
PLATELET COUNT [3]: 1159.67 x10E3/uL
ALANINE AMINOTRANSFERASE [3]: 56 u/L
ALBUMIN [3]: 4.43 G/DL
ALKALINE PHOSPHATASE [3]: 396.33 u/L
ASPARTATE AMINOTRANSFERASE [3]: 89 u/L
BLOOD UREA NITROGEN [3]: 16.33 mg/dL
CARBON DIOXIDE [3]: 26.33 mmol/L
CHLORIDE [3]: 106.33 MEQ/L
CHOLESTEROL [3]: 85.33 mg/dL
CREATINE PHOSPHOKINASE [3]: 213.67 u/L
CREATININE [3]: 0.2 mg/dL
GLUCOSE [3]: 152.33 mg/dL
LACTATE DEHYDROGENASE [3]: 137.33 u/L
LIPASE [3]: 8.67 u/L
PHOSPHORUS [3]: 13.77 mg/dL
SODIUM [3]: 148.03 MEQ/L
TOTAL BILIRUBIN [3]: 0.27 mg/dL
TOTAL PROTEIN [3]: 6.4 G/DL
URIC ACID [3]: 2.37 mg/dL
ABSOLUTE BASOPHIL [4]: 0 CELLS/uL
ABSOLUTE EOSINOPHIL [4]: 254 CELLS/uL
ABSOLUTE LYMPHOCYTE [4]: 15699.67 CELLS/uL
ABSOLUTE MONOCYTE [4]: 74 CELLS/uL
ABSOLUTE SEGMENTED NEUTROPHIL [4]: 1405.67 CELLS/uL
BASOPHIL [4]: 0%
EOSINOPHIL [4]: 1.33%
ERYTHROCYTE COUNT [4]: 5.4 x10E6/uL
HEMATOCRIT [4]: 34.6%
HEMOGLOBIN [4]: 13.17 G/DL
LEUKOCYTE COUNT [4]: 17.43 x10E3/uL
LYMPHOCYTE [4]: 90%
MEAN CORPUSCULAR HEMOGLOBIN [4]: 24.43 pg
MEAN CORPUSCULAR HEMOGLOBIN CONCENTRATION [4]: 38.03 G/DL
MEAN CORPUSCULAR VOLUME [4]: 64.2 fL
MONOCYTE [4]: 0.33%
NEUTROPHIL [4]: 8.33%
NUCLEATED RED BLOOD CELLS [4]: 0 /100WBC
PLATELET COUNT [4]: 1387 x10E3/uL
ALANINE AMINOTRANSFERASE [4]: 59 u/L
ALBUMIN [4]: 4.4 G/DL
ALKALINE PHOSPHATASE [4]: 383.67 u/L
ASPARTATE AMINOTRANSFERASE [4]: 87.67 u/L
BLOOD UREA NITROGEN [4]: 18 mg/dL
CARBON DIOXIDE [4]: 25.67 mmol/L
CHLORIDE [4]: 103.67 MEQ/L
CHOLESTEROL [4]: 59.33 mg/dL
CREATINE PHOSPHOKINASE [4]: 259.33 u/L
CREATININE [4]: 0.27 mg/dL
GLUCOSE [4]: 182 mg/dL
LACTATE DEHYDROGENASE [4]: 250.33 u/L
LIPASE [4]: 8.67 u/L
PHOSPHORUS [4]: 14.07 mg/dL
SODIUM [4]: 145.8 MEQ/L
TOTAL BILIRUBIN [4]: 0.17 mg/dL
TOTAL PROTEIN [4]: 6.3 G/DL
URIC ACID [4]: 2.17 mg/dL
